# Like-named read-outs stand apart in the source and are kept apart here.
# Experiment: log P by HPLC on reversed-phase column (C 18), EEC Directive 79/831 Annex V.A8
# Assay type: physicochemical
# Procedure: In table 1, the log P values were determined in accordance with EEC Directive 79/831 Annex V.A8 by HPLC (High Performance Liquid Chromatography) on a reversed-phase column (C 18), using the method described below: […] If more than one Log P value is available within the same method, all the values are given and separated by “;”.
logP,Compound,further results
2.64,CCCn1nccc1-c1c(Nc2nc3ccc(F)c(F)c3nc2C)cncc1OC [I.33],
2.82,CCCn1nccc1-c1c(Nc2cc3ccc(F)c(F)c3nc2C)ccnc1Cl [I.34],
2.49,Cn1nccc1-c1cscc1Cc1cnc2c(F)cccc2c1 [I.36],
3.77,Fc1cccc2cc(Cc3cscc3-c3ccsc3)cnc12 [I.37],
4.47,Cc1nc2c(F)c(F)ccc2cc1Cc1cscc1-c1ccsc1 [I.39],
2.11,CCCn1nccc1-c1c(C)cncc1Nc1cc2ccc(F)c(F)c2nc1C [I.40],
2.22,CCn1nccc1-c1c(F)cncc1Nc1cc2ccc(F)c(OC)c2nc1C [I.41],
2.06,CCn1nccc1-c1c(Nc2cc3ccc(F)c(F)c3nc2C)cncc1OC [I.42],
2.86,CCn1nccc1-c1c(Cl)cncc1Nc1cc2ccc(F)c(F)c2nc1C [I.43],
2.51,CCCn1nccc1-c1c(F)cncc1Nc1cc2ccc(F)c(OC)c2nc1C [I.44],
2.30,CCCn1nccc1-c1c(Nc2cc3ccc(F)c(F)c3nc2C)cncc1OC [I.45],
3.20,CCCn1nccc1-c1c(Cl)cncc1Nc1cc2ccc(F)c(F)c2nc1C [I.46],
3.10,CCOCn1nccc1-c1ccsc1Cc1cnc2c(F)cccc2c1 [I.47],
3.64,CCOCn1nccc1-c1ccsc1Cc1cc2ccc(F)c(F)c2nc1C [I.48],
2.92,Cc1nc2c(F)c(F)ccc2cc1Cc1cccnc1Br [IIa.01],
2.07,CS(=O)(=O)N(c1cnc2c(F)cccc2c1)c1cccnc1Cl [IIa.02],
2.41,Cc1nc2c(F)c(F)ccc2nc1Nc1cnccc1Cl [IIc.01],
2.94,Cc1nc2c(F)c(F)ccc2cc1Nc1cncc(F)c1I [IIc.02],
3.36,Fc1cccc2cc(Cc3cscc3Br)cnc12 [IIf.01],
3.50,Fc1cccc2cc(Cc3sccc3Br)cnc12 [IIg.01],
4.19,Cc1nc2c(F)c(F)ccc2cc1Cc1sccc1Br [IIg.02],

# Further lines, the compound ahead of its results:
Compound,logP,further results
3-bromo-2-(1-methyl-1H-pyrazol-5-yl)pyridine [IXa.01],,"logP (HPLC, reversed-phase C 18, 40° C., 0.1% aqueous formic acid and acetonitrile, gradient 10% to 95% acetonitrile): 1.53"
Cc1nc2ccccc2nc1Nc1cccnc1-c1ccnn1C [I.01],1.88,
Cn1nccc1-c1ncccc1Nc1cnc2c(F)cccc2c1 [I.02],1.72,
Cc1c(Nc2ccsc2-c2ccnn2C)cnc2ccccc12 [I.03],1.39,
Cc1nc2ccccc2nc1Nc1ccsc1-c1ccnn1C [I.04],2.47,
Cn1nccc1-c1sccc1Nc1cnc2c(F)cccc2c1 [I.05],2.49,
CCn1nccc1-c1sccc1Nc1cnc2ccccc2c1C [I.06],1.60,
CCn1nccc1-c1sccc1Nc1nc2ccccc2nc1C [I.07],2.80,
Cn1nccc1-c1ncccc1Nc1cnc2ccccc2c1Cl [I.08],2.02,
Cn1nccc1-c1ncccc1Nc1cnc2c(F)c(F)ccc2c1 [I.09],1.93,
Cn1nccc1-c1ncccc1Nc1cnc2c(F)c(F)ccc2n1 [I.10],2.13,
CCn1nccc1-c1sccc1Nc1cnc2c(F)cccc2c1 [I.11],2.75,
Cn1nccc1-c1sccc1Nc1cnc2ccccc2c1Cl [I.12],2.66,
"Cn1nccc1-c1sccc1Nc1cnc2c(F)c(F)ccc2c1 [I.13, 7,8-difluoro-N-[2-(1-methyl-1H-pyrazol-5-yl)-3-thienyl]quinolin-3-amine]",,chromatographic logP: 2.71
Cn1nccc1-c1sccc1Nc1cnc2c(F)c(F)ccc2n1 [I.14],2.94,
Cc1nc2c(F)c(F)ccc2cc1Cc1cccnc1-c1ccnn1C [I.15],2.17,
Cc1nc2c(F)c(F)ccc2cc1Nc1cccnc1-c1ccnn1C [I.16],2.04,
Cc1nc2c(F)c(F)ccc2nc1Nc1cccnc1-c1ccnn1C [I.17],2.23,
Cc1nc2c(F)c(F)ccc2cc1Cc1cccnc1-c1ccsc1 [I.18],2.05,
Cc1nc2c(F)c(F)ccc2nc1Nc1cncnc1-c1ccnn1C [I.19],2.00,
CCn1nccc1-c1sccc1Nc1cnc2ccccc2c1Cl [I.20],2.98,
Cc1nc2c(F)c(F)ccc2cc1Nc1ccsc1-c1ccnn1C [I.21],2.74,

Compound,logP,further results
CCn1nccc1-c1sccc1Nc1cnc2c(F)c(F)ccc2c1 [I.22],2.92,
CCn1nccc1-c1sccc1Nc1cnc2c(F)c(F)ccc2n1 [I.23],3.29,
Cc1nc2c(F)c(F)ccc2nc1Nc1ccsc1-c1ccnn1C [I.24],2.90,
CCn1nccc1-c1sccc1Nc1cc2ccc(F)c(F)c2nc1C [I.25],3.11,
CCn1nccc1-c1sccc1Nc1nc2ccc(F)c(F)c2nc1C [I.26],3.27,
CCCn1nccc1-c1cnccc1Nc1nc2ccc(F)c(F)c2nc1C [I.27],2.33,
CCn1nccc1-c1c(F)cncc1Nc1cc2ccc(F)c(F)c2nc1C [I.28],2.60,
"Cc1nc2c(F)c(F)ccc2cc1Nc1ccnc(Cl)c1-c1ccnn1C [I.29, N-[2-chloro-3-(1-methyl-1H-pyrazol-5-yl)pyridin-4-yl]-7,8-difluoro-2-methylquinolin-3-amine]",,chromatographic logP: 2.27
CCn1nccc1-c1c(Nc2nc3ccc(F)c(F)c3nc2C)cncc1OC [I.30],2.28,
CCCn1nccc1-c1c(F)cncc1Nc1cc2ccc(F)c(F)c2nc1C [I.31],2.86,
CCn1nccc1-c1c(Cl)cncc1Nc1nc2ccc(F)c(F)c2nc1C [I.32],3.06,
"CCCn1nccc1-c1c(Cl)cncc1Nc1nc2ccc(F)c(F)c2nc1C [I.35, N-[5-chloro-4-(1-propyl-1H-pyrazol-5-yl)pyridin-3-yl]-5,6-difluoro-3-methylquinoxalin-2-amine]",,chromatographic logP: 3.44
"Cc1nc2c(F)c(F)ccc2cc1Cc1cscc1-c1ccnn1C [I.38, 7,8-difluoro-2-methyl-3-{[4-(1-methyl-1H-pyrazol-5-yl)-3-thienyl]methyl}quinoline]",,chromatographic logP: 3.01
"Cc1nc2c(F)c(F)ccc2cc1Cc1cscc1Br [IIf.02, 3-[(4-bromo-3-thienyl)methyl]-7,8-difluoro-2-methylquinoline]",,chromatographic logP: 4
"CCn1nccc1-c1ccncc1Cl [IXc.01, 3-chloro-4-(1-ethyl-1H-pyrazol-5-yl)pyridine]",,chromatographic logP: 1.73
"Cn1nccc1-c1sccc1Br [IXe.01, 5-(3-bromo-2-thienyl)-1-methyl-1H-pyrazole]",,chromatographic logP: 2.29
"CCn1nccc1-c1sccc1Br [IXe.02, 5-(3-bromo-2-thienyl)-1-ethyl-1H-pyrazole]",,chromatographic logP: 2.72
"CCCn1nccc1-c1ccncc1N [XIc.01, 4-(1-propyl-1H-pyrazol-5-yl)pyridin-3-amine]",,chromatographic logP: 0.11
"CCn1nccc1-c1c(N)cncc1OC [XIc.02, 4-(1-ethyl-1H-pyrazol-5-yl)-5-methoxypyridin-3-amine]",,chromatographic logP: 0.08
"CCn1nccc1-c1c(N)cncc1Cl [XIc.03, 5-chloro-4-(1-ethyl-1H-pyrazol-5-yl)pyridin-3-amine]",,chromatographic logP: 1.3
"CCCn1nccc1-c1c(N)cncc1OC [XIc.04, 5-methoxy-4-(1-propyl-1H-pyrazol-5-yl)pyridin-3-amine]",,chromatographic logP: 0.45
"CCCn1nccc1-c1c(N)cncc1Cl [XIc.05, 5-chloro-4-(1-propyl-1H-pyrazol-5-yl)pyridin-3-amine]",,chromatographic logP: 1.64

# Source: US20210387964A1, “HETEROARYLAMINOQUINOLINES AND ANALOGUES” (Bayer Aktiengesellschaft, priority 2018, published 2021)
